The text below walks through data of ChEMBL document CHEMBL4390697, “Ginnalin B induces differentiation markers and modulates the proliferation/differentiation balance via the upregulation of NOTCH1 in human epidermal keratinocytes” (Bioorg Med Chem, 2019).

The source made the active and inactive calls. No cut-off for these calls is given here.

Data set [1] can be described thus: Inhibition of keratin-10 expression in human PHK160b cells at 50 uM incubated for 48 hrs by quantitative RT-PCR analysis relative to untreated control. In kind it is functional.
Data set [2] in a line: (§1) Induction of keratin-10 expression in human PHK160b cells at 50 uM incubated for 48 hrs by quantitative RT-PCR analysis relative to untreated control. The data set is classed as functional.
Data set [3] is filed under the species Homo sapiens. The data set is described as §1. The data set is classed as functional.
Data set [4] can be described thus: Cytotoxicity against human PHK160b cells assessed as reduction in cell growth at 100 uM incubated up to 96 hrs by MTT assay. In kind it is cell-based.
Data set [5] is described as follows: Induction of apoptosis in human PHK160b cells assessed as induction of multiple fragmented segregated bodies at 100 uM incubated for 48 hrs Hoechst 33,342 staining based fluorescent microscopy. In kind it is cell-based.
Data set [6] is described as follows: Cytotoxicity against human PHK160b cells assessed as reduction in cell viability incubated for 48 hrs by LDH release assay. The data set is classed as cell-based.
Data set [7] is described as follows: Cell cycle arrest in human PHK160b cells assessed as accumulation at G0/G1 phase at 50 uM incubated for 48 hrs by propidium iodide staining-based flow cytometry. The data set is classed as functional.
Data set [8] is described as follows: Cell cycle arrest in human PHK160b cells assessed as accumulation at G2/M phase at 50 uM incubated for 48 hrs by propidium iodide staining-based flow cytometry. In kind it is functional.
A short description of data set [9]: Cell cycle arrest in human PHK160b cells assessed as accumulation at G2/M phase at 100 uM incubated for 48 hrs by propidium iodide staining-based flow cytometry. In kind it is functional. In general terms: Flow cytometry measures light scatter and fluorescence of single cells or particles in a stream.
Data set [10] can be described thus: Cytotoxicity against human PHK160b cells assessed as reduction in cell viability at 10 to 1000 uM incubated for 48 hrs by LDH release assay. In kind it is cell-based. (In general: LDH in the medium is a marker of cell lysis.)
Data set [11] in a line: Cytotoxicity against human PHK160b cells assessed as reduction in cell growth at 100 uM incubated for 24 to 96 hrs by MTT assay. The data set is classed as cell-based.
The species named for data set [12] is Homo sapiens. Nature of the data set: Cell cycle arrest in human PHK160b cells assessed as increase in expression of NOTCH 1 at 50 to 100 uM incubated for 72 hrs by western blot method. The data set is classed as functional, cell-based. (In western blotting, separated proteins are transferred to a membrane and probed.)
Data set [13] is described as follows: Cell cycle arrest in human PHK160b cells assessed as increase in expression of p21 at 0 to 100 uM incubated for 72 hrs by RT-PCR method. The data set is classed as functional.
Data set [14] can be described thus: Induction of keratin-10 expression in human PHK160b cells at 100 uM incubated for 48 hrs by quantitative RT-PCR analysis relative to untreated control. In kind it is functional.
For data set [15], the species on record is Homo sapiens. Nature of the data set: Induction of keratin-1 expression in human PHK160b cells incubated for 48 hrs by quantitative RT-PCR analysis relative to untreated control. In kind it is functional, cell-based.
Data set [16] is described as follows: Induction of keratin-1 expression in human PHK160b cells at 100 uM incubated for 48 hrs by quantitative RT-PCR analysis relative to untreated control. In kind it is functional.
Data set [17] is filed under the species Homo sapiens. As to the kind of experiment: Induction of filaggrin expression in human PHK160b cells incubated for 48 hrs by quantitative RT-PCR analysis relative to untreated control. In kind it is functional, cell-based.
Data set [18] can be described thus: Cell cycle arrest in human PHK160b cells assessed as increase in expression of NOTCH1 at 100 uM incubated for 72 hrs by RT-PCR method relative to control. The data set is classed as functional.
For data set [19], the species on record is Homo sapiens. As to the kind of experiment: Cell cycle arrest in human PHK160b cells assessed as decrease in expression of cyclin E incubated for 72 hrs by western blot method. In kind it is functional, cell-based.
For data set [20], the species on record is Homo sapiens. As to the kind of experiment: Induction of keratin-10 expression in human PHK160b cells incubated for 48 hrs by quantitative RT-PCR analysis relative to untreated control. In kind it is functional, cell-based.
In data set [21] the test system is Zone of skin. Nature of the data set: Induction of keratinocyte differentiation in human EPI-212 EpiDerm skin model assessed as increase in filaggrin expression at 100 uM incubated for 7 days by DAB based immunohistochemical staining analysis (Rvb= 20%). The data set is classed as functional.
Data set [22] concerns Zone of skin. Nature of the data set: Induction of keratinocyte differentiation in human EPI-212 EpiDerm skin model assessed as increase in keratin-10 expression at 100 uM incubated for 7 days by DAB based immunohistochemical staining analysis (Rvb= 35.8%). The data set is classed as functional.
The nature of data set [23]: Cell cycle arrest in human PHK160b cells assessed as accumulation at G0/G1 phase at 100 uM incubated for 48 hrs by propidium iodide staining-based flow cytometry. In kind it is functional.
For data set [24], the species on record is Homo sapiens. As to the kind of experiment: Cell cycle arrest in human PHK160b cells assessed as decrease in expression of cyclin D1 incubated for 72 hrs by western blot method. The data set is classed as functional, cell-based.
A short description of data set [25]: Induction of filaggrin expression in human PHK160b cells at 100 uM incubated for 48 hrs by quantitative RT-PCR analysis relative to untreated control. In kind it is functional.
For data set [26], the species on record is Homo sapiens. As to the kind of experiment: Cell cycle arrest in human PHK160b cells assessed as increase in expression of p21 incubated for 72 hrs by western blot method. In kind it is functional, cell-based.
Data set [27] is described as follows: Cytotoxicity against human PHK160b cells assessed as reduction in cell viability at 100 uM incubated for 24 hrs by MTT assay. In kind it is cell-based.

Take `O=C(OC[C@H]1OC[C@H](OC(=O)c2cc(O)c(O)c(O)c2)[C@@H](OC(=O)c2cc(O)c(O)c(O)c2)[C@@H]1OC(=O)c1cc(O)c(O)c(O)c1)c1cc(O)c(O)c(O)c1`: in data set [1], the “fold change (FC)” value turned out to be 0.64.
As to `O=C(OC[C@H]1OC[C@H](O)[C@@H](O)[C@@H]1OC(=O)c1cc(O)c(O)c(O)c1)c1cc(O)c(O)c(O)c1`, the “fold change (FC)” value in data set [2] is on record as 2.18.
As for `COc1cc(C(=O)OC[C@H]2OC[C@H](O)[C@@H](O)[C@@H]2O)cc(OC)c1OC`, in the data set filed under Homo sapiens [3], the result was inactive.
For `O=C(OC[C@H]1OC[C@H](O)[C@@H](O)[C@@H]1O)c1ccccc1`, in the data set filed under Homo sapiens [3], the result was inactive.
Turning to `O=C(O[C@H]1CO[C@H](CO)[C@@H](O)[C@@H]1O)c1cc(O)c(O)c(O)c1`, the result in the data set filed under Homo sapiens [3] was Active.
On the same count and under the same terms, then `O=C(O[C@H]1[C@H](O)[C@@H](CO)OC[C@@H]1O)c1cc(O)c(O)c(O)c1`, with “Active”; and `O=C(O[C@H]1[C@H](O)[C@@H](O)CO[C@@H]1CO)c1cc(O)c(O)c(O)c1`, with “Active”.
As for `OC[C@H]1OC[C@H](O)[C@@H](O)[C@@H]1O` [1,5-Anhydrosorbitol], the outcome in the data set listed under Homo sapiens [3] was inactive. Further, the Activity entry in data set [4] was “Non-Toxic”.
For `COc1cc2c(c(OC)c1OC)-c1ccc(OC)c(=O)cc1[C@@H](NC(C)=O)CC2` [COLCHICINE], the Activity entry in data set [5] is “Toxic”; in data set [6], “Dose-dependent effect”; in data set [7] it was 18%; in [8], 74.6%.
As for `O=C(OC[C@H]1OC[C@H](O)[C@@H](O)[C@@H]1O)c1cc(O)c(O)c(O)c1` [GINNALIN B], the Activity in data set [9] is 20%; in [5], “Non-Toxic”; in data set [10], “Non-Toxic”; in data set [11], “Toxic”; in the data set listed under Homo sapiens [15] it was “Dose-dependent effect”; in the data set listed under Homo sapiens [17], “Dose-dependent effect”. Further, the Activity result in the data set listed under Homo sapiens [19] is “Dose-dependent effect”; in the data set filed under Homo sapiens [20], “Dose-dependent effect”; in the data set on Zone of skin [21], 56.6%; in the data set on Zone of skin [22] it was 42.4%; in data set [23] it was 66%; in the data set listed under Homo sapiens [24] it was “Dose-dependent effect”. Further, the Activity result in the data set filed under Homo sapiens [26] is “Dose-dependent effect”; in data set [27], “Non-Toxic”. For the same compound, in the data set listed under Homo sapiens [12], the result was Active. Further, the “fold change (FC)” value in data set [13] is given as 1.4; in data set [14] it was 1.7; in data set [2], 1.9; in data set [16], 2.9; in data set [18], 1.9; in data set [25], 5.2.
Regarding `O=C(O[C@H]1[C@H](O)[C@@H](OC(=O)c2cc(O)c(O)c(O)c2)CO[C@@H]1CO)c1cc(O)c(O)c(O)c1` [MAPLEXIN D], in data set [2], the “fold change (FC)” value came out at 2.2.
